Test results: article PMC4677828 (Combinatorial chemistry & high throughput screening, 2015)

Key:
Type in all cases: biochemical
HDAC6 = molecular target: T1, HDAC6 (Homo sapiens, UniProt Q9UBN7); test: single-concentration inhibition assay; settings: 100 μM inhibitor
T1 sequence (Q9UBN7 1-1215): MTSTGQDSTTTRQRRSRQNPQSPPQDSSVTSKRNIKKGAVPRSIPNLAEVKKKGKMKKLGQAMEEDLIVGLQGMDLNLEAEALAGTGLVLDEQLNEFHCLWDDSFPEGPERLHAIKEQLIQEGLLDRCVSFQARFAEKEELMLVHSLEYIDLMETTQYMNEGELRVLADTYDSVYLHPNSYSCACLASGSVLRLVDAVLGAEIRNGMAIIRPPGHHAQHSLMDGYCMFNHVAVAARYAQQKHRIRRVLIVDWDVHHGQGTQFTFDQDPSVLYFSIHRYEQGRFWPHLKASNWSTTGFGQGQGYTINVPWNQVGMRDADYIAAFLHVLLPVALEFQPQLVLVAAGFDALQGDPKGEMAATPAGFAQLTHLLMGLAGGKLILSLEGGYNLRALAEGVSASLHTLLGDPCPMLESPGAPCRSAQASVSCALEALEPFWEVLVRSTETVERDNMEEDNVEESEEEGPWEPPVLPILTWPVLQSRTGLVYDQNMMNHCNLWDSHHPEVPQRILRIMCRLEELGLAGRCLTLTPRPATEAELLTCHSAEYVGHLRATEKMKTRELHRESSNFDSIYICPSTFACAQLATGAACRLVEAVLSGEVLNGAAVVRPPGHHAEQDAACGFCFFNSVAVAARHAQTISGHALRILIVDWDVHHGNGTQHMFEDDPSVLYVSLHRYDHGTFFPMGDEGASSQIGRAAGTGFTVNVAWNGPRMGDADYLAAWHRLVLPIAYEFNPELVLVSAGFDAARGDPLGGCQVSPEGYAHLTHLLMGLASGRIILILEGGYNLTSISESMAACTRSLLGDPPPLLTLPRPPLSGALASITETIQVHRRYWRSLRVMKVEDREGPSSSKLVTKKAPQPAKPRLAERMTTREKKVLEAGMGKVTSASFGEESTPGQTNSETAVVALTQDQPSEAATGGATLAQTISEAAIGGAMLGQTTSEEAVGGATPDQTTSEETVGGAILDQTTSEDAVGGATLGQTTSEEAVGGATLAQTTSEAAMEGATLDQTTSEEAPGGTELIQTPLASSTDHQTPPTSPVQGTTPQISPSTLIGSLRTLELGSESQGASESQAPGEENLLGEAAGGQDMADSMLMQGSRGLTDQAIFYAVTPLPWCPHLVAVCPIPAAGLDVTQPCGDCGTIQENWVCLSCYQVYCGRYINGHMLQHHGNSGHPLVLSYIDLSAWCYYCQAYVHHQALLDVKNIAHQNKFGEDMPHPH

HDAC1 = HDAC1 (Homo sapiens, UniProt Q13547); test: single-concentration inhibition assay; settings: 100 μM inhibitor
HDAC2 = HDAC2 (Homo sapiens, UniProt Q92769); test: fluorogenic HDAC assay; settings: 5 μL of 200 μM HDAC substrate in 50 μL; 30 min pre-incubation; 37 °C; BSA
Sequence of HDAC2 (Q92769 whole entry): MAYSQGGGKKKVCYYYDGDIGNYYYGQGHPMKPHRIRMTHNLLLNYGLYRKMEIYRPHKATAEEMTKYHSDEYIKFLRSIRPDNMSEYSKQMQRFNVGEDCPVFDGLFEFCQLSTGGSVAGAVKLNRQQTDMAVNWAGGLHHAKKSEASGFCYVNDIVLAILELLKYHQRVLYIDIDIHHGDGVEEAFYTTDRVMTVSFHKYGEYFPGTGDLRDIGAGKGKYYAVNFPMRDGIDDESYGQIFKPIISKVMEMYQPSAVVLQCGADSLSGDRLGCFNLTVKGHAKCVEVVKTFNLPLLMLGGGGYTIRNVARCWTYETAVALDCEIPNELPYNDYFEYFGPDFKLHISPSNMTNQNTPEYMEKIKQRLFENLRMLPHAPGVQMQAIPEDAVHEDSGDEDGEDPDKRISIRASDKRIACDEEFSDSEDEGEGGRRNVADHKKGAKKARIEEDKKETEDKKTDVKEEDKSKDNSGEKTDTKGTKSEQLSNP

Sequence of HDAC1 (Q13547 whole entry): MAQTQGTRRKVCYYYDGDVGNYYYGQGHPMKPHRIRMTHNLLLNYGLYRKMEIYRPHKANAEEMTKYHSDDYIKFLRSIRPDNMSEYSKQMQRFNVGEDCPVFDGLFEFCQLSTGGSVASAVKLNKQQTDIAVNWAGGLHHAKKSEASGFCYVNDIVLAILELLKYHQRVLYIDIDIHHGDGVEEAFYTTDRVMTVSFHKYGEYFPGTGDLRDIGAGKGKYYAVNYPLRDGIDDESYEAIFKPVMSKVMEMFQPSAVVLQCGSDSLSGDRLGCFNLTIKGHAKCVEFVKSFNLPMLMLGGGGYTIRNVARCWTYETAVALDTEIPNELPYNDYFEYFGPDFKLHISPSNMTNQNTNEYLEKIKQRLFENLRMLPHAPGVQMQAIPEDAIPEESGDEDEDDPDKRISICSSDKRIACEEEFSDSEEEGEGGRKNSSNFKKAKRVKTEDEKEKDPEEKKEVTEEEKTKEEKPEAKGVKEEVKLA

- % inhibition at 100 μM (HDAC6): 34.28%
- % inhibition at 100 μM (HDAC1): 86.90%
- IC50 (HDAC2): 16.9 µM
Substance: ST088357
